Several values for one entry are separate records, joined by “and”; a condition that tells them apart may be missing. Equal entries are not always repeated.
Experiments:
p38α = molecular target: T1, p38α (Homo sapiens, UniProt Q16539); experiment: p38 MAP Kinase assay: inhibition of ATF2 phosphorylation, ELISA; type: biochemical; conditions: for IC50: ATF2 phosphorylation, read-out: [ENZ] P38 ALPHA, IC50, ELISA; for inhibition at 10 µM: substrate ATF2, read-out: [ENZ] P38 ALPHA, PCT INH, ELISA (10 uM;ATF2) (Percent)
T1 construct: p38 MAP Kinases are recombinant human full-length proteins with an amino-terminal GST fusion; GST (N); purchased Upstate Biotechnology Inc; host or cells: E. coli
Procedure, shortened: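 GST-tagged full-length human p38 MAP kinase with GST-ATF2 (aa 19–96; 1.25 μM) and 40 μM ATP in HEPES pH 7.5 buffer, without (Method I) or with (Method II) 1% human serum albumin. Compound pre-incubated 15 min at room temperature; reaction 30 min at 37 °C; ATF2 Thr69 phosphorylation measured by ELISA (A450).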

[1] = tested on: TNFα release from THP-1 cells; experiment: Inhibition of TNFα release from LPS-stimulated THP-1 cells, ELISA; type: cell-based; conditions: Homo sapiens, THP-1, THP-1 cells, read-out: [CELL] THP-1, IC50, TNF ALPHA, ELISA
Procedure, shortened: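 Human THP-1 monocytes, 10^6 cells/ml in RPMI with 10% FBS, no serum or 1% HSA, preincubated 30 min at 37 °C with compound (≤0.5% DMSO), then stimulated with 10 μg/ml LPS for 18 h. Supernatant TNFα measured by ELISA; IC50 from non-linear dose-response regression.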

T1 sequence (Q16539 whole entry, the tested form may be a part): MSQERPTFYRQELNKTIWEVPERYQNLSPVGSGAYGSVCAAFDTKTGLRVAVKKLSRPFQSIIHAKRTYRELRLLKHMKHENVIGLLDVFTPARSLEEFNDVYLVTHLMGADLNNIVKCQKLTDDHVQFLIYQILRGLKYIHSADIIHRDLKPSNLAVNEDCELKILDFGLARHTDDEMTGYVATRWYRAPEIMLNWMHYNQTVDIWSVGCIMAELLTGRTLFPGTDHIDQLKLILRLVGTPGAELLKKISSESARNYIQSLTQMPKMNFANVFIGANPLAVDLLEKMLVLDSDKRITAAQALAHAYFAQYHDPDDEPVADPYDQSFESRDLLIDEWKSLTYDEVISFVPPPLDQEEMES

## O=C(Nc1ccc(OCc2ccncc2)c2ccccc12)c1cc(F)cc(N2CCOCC2)c1 [Compound B191, 3-Fluoro-5-morpholin-4-yl-N-[4-(pyridin-4-ylmethoxy)-1-naphthyl]benzamide]
other
  melting point: 157 to 159 °C
p38α
  IC50: 0.0527 µM and 0.061 µM

## O=C(Nc1ccc(Oc2ccnc(N3CCC4(CC3)OCCO4)n2)c2ccccc12)c1cc(F)cc(N2CCOCC2)c1 [Compound B320, N-(4-{[2-(1,4-Dioxa-8-azaspiro[4.5]dec-8-yl)pyrimidin-4-yl]oxy}-1-naphthyl)-3-fluoro-5-morpholin-4-ylbenzamide]
[1]
  IC50: 0.19 µM
other
  melting point: 115 to 117 °C
p38α
  IC50: 0.0071 µM

## O=C(Nc1ccc(OCc2ccncc2)c2ccccc12)c1cc(F)cc(OC2CCCCC2)c1 [Compound B235, 3-(Cyclohexyloxy)-5-fluoro-N-[4-(pyridin-4-ylmethoxy)-1-naphthyl]benzamide]
[1]
  IC50: 0.557 µM
other
  melting point: 176 to 178 °C
p38α
  IC50: 0.125 µM

## CN1CCCC1CCNc1nccc(Oc2ccc(NC(=O)c3cc(F)cc(N4CCCCC4)c3)c3ccccc23)n1 (centres unmarked) [Compound B394, 3-Fluoro-N-{4-[(2-{[2-(1-methylpyrrolidin-2-yl)ethyl]amino}pyrimidin-4-yl)oxy]-1-naphthyl}-5-piperidin-1-ylbenzamide]
[1]
  IC50: 0.0108 µM
other
  melting point: 112 to 114 °C
p38α
  IC50: 0.0007 µM

## O=C(Nc1ccc(OCCN2CCCC2=O)c2ccccc12)c1cc(F)cc(N2CCOCC2)c1 [Compound B224, 3-Fluoro-5-morpholin-4-yl-N-{4-[2-(2-oxopyrrolidin-1-yl)ethoxy]-1-naphthyl}benzamide]
other
  melting point: 172 to 173 °C
p38α
  IC50: 6.55 µM

## CCn1c(COc2ccc(NC(=O)c3cc(F)cc(N4CCOCC4)c3)c3ccccc23)n[nH]c1=O [Compound B255, N-[4-(4-Ethyl-5-oxo-4,5-dihydro-1H-[1,2,4]triazol-3-ylmethoxy)-naphthalen-1-yl]-3-fluoro-5-morpholin-4-yl-benzamide]
[1]
  IC50: 1.94 µM
other
  melting point: 260 °C
p38α
  IC50: 0.578 µM

## CC1CCC(Nc2nccc(Oc3ccc(NC(=O)c4cc(F)cc(N5CCOCC5)c4)c4ccccc34)n2)CC1 (centres unmarked) [Compound B337, 3-Fluoro-N-[4-({2-[(4-methylcyclohexyl)amino]pyrimidin-4-yl}oxy)-1-naphthyl]-5-morpholin-4-ylbenzamide]
[1]
  IC50: 0.0656 µM
other
  melting point: 116 to 117 °C
p38α
  IC50: 0.0333 µM

## O=C(Nc1ccc(Oc2ccnc(NCCO)n2)c2ccccc12)c1cc(F)cc(N2CCOCC2)c1 [Compound B252, 3-Fluoro-N-[4-({2-[(2-hydroxyethyl)amino]pyrimidin-4-yl}oxy)-1-naphthyl]-5-morpholin-4-ylbenzamide]
[1]
  IC50: 0.0308 µM
other
  melting point: 127 to 129 °C
p38α
  IC50: 0.0319 µM

## O=C(Nc1ccc(OCCN2CCOCC2)c2ccccc12)c1cc(F)cc(OC2CCOCC2)c1 [Compound B226, 3-Fluoro-N-[4-(2-morpholin-4-ylethoxy)-1-naphthyl]-5-(tetrahydro-2H-pyran-4-yloxy)benzamide]
other
  melting point: 75 to 77 °C
p38α
  IC50: 5.39 µM

## O=C(Nc1ccc(Oc2ccnc(N3CCCC3)n2)c2ccccc12)c1cc(F)cc(N2CCCCC2)c1 [Compound B377, 3-Fluoro-piperidin-1-yl-N-{4-[(2-pyrrolidin-1-ylpyrimidin-4-yl)oxy]-1-naphthyl}benzamide]
[1]
  IC50: 0.515 µM
other
  melting point: 111 to 113 °C

## O=C(Nc1ccc(OCCN2CCCC2=O)c2ccccc12)c1cc(F)cc(N2CCCCC2)c1 [Compound B181, 3-Fluoro-N-{4-[2-(2-oxopyrrolidin-1-yl)ethoxy]-1-naphthyl}-5-piperidin-1-ylbenzamide]
other
  melting point: 161 to 162 °C
p38α
  IC50: 2.35 µM

## O=C(Nc1ccc(OCc2ccoc2)c2ccccc12)c1cc(F)cc(N2CCCCC2)c1 [Compound B180, 3-Fluoro-N-[4-(3-furylmethoxy)-1-naphthyl]-5-piperidin-1-ylbenzamide]
other
  melting point: 152 to 153 °C
p38α
  IC50: 4.04 µM

## CCC1CCC(Oc2cc(F)cc(C(=O)Nc3ccc(OCc4ccncc4)c4ccccc34)c2)CC1 (centres unmarked) [Compound B228, 3-[(4-Ethylcyclohexyl)oxy]-5-fluoro-N-[4-(pyridin-4-ylmethoxy)-1-naphthyl]benzamide]
other
  melting point: 93 to 95 °C
p38α
  IC50: > 10 µM

## Cc1ccc(N2CCOCC2)cc1C(=O)Nc1ccc(OCCN2CCOCC2)c2ccccc12 [Compound B39, 2-Methyl-5-morpholin-4-yl-N-[4-(2-morpholin-4-yl-ethoxy)-naphthalen-1-yl]-benzamide]
[1]
  IC50: 2.76 µM
p38α
  IC50: 2.46 µM

## O=C(Nc1ccc(OCCN2CCOCC2)c2ccccc12)c1ccccc1 [Compound B26]
[1]
  IC50: > 10 µM
p38α
  IC50: 21.8 µM

## CN(C)c1ccc(C(=O)Nc2ccc(OCCN3CCOCC3)c3ccccc23)cc1 [Compound B34]
[1]
  IC50: > 10 µM
p38α
  IC50: 10.7 µM

## C[C@@H]1CN(CCOc2ccc(NC(=O)c3ccc(CN4CCOCC4)cc3)c3ccccc23)C[C@H](C)O1 [Compound B5]
[1]
  IC50: > 10 µM
p38α
  IC50: > 10 µM

## CC1CCN(c2cc(F)cc(C(=O)Nc3ccc(Oc4ccnc(NC5CCCC5)n4)c4ccccc34)c2)CC1 [Compound B266, N-(4-{[2-(Cyclopentylamino)pyrimidin-4-yl]oxy}-1-naphthyl)-3-fluoro-5-(4-methylpiperidin-1-yl)benzamide]
[1]
  IC50: 0.256 µM
p38α
  IC50: 0.363 µM

## O=C(Nc1ccc(Oc2ccnc(N3CCC(O)C3)n2)c2ccccc12)c1cc(F)cc(N2CCCCC2)c1 (centres unmarked) [Compound B393]
[1]
  IC50: 0.715 µM
p38α
  IC50: 0.0168 µM

## CC(C)Nc1nccc(Oc2ccc(NC(=O)c3cc(F)cc(N4CCCCC4)c3)c3ccccc23)n1 [Compound B396, 3-Fluoro-N-(4-{[2-(isopropylamino)pyrimidin-4-yl]oxy}-1-naphthyl)-5-piperidin-1-ylbenzamide]
[1]
  IC50: 0.201 µM
p38α
  IC50: 0.006 µM

## COc1cccc(-c2cccc(C(=O)Nc3ccc(OCCN4CCOCC4)c4ccccc34)c2)c1 [Compound B91]
[1]
  IC50: 3.55 µM
p38α
  inhibition at 10 µM: 78%
  IC50: 0.9 µM

## CC1CC(C)CN(c2nccc(Oc3ccc(NC(=O)c4cc(F)cc(N5CCCCC5)c4)c4ccccc34)n2)C1 (centres unmarked) [Compound B391]
[1]
  IC50: > 1 µM
p38α
  IC50: 0.207 µM

## Cc1ccc(C(=O)Nc2ccc(OCCN3CCOCC3)c3ccccc23)cc1N1CCOCC1 [Compound B40, 4-Methyl-3-morpholin-4-yl-N-[4-(2-morpholin-4-yl-ethoxy)-naphthalen-1-yl]-benzamide]
[1]
  IC50: > 10 µM
p38α
  IC50: 2.49 µM

## CN(C)C(=O)[C@@H]1CCCN1c1nccc(Oc2ccc(NC(=O)c3cc(F)cc(N4CCOCC4)c3)c3ccccc23)n1 [Compound B356]
[1]
  IC50: > 1 µM
p38α
  IC50: 0.264 µM

## CC(=O)c1cccc(-c2cccc(C(=O)Nc3ccc(OCCN4CCOCC4)c4ccccc34)c2)c1 [Compound B279]
[1]
  IC50: > 10 µM
p38α
  IC50: > 10 µM

## O=C(Nc1ccc(OCCCN2CCC3(CC2)OCCO3)c2ccccc12)c1cc(F)cc(N2CCCCC2)c1 [Compound B166, N-{4-[3-(1,4-Dioxa-8-aza-spiro[4.5]dec-8-yl)-propoxy]-naphthalen-1-yl}-3-fluoro-5-piperidin-1-yl-benzamide]
other
  melting point: 70 to 72 °C
p38α
  IC50: 4.81 µM

## O=C(Nc1ccc(OCCN2CCOCC2)c2ccccc12)c1cccc(-c2ccccc2)c1 [Compound B84, Biphenyl-3-carboxylic acid [4-(2-morpholin-4-yl-ethoxy)-naphthalen-1-yl]-amide]
[1]
  IC50: 2.03 µM
p38α
  inhibition at 10 µM: 88%
  IC50: 0.451 µM

## C[C@@H]1CN(c2cccc(C(=O)Nc3ccc(OCCN4CCOCC4)c4ccccc34)c2)C[C@H](C)O1 [Compound B31]
[1]
  IC50: > 10 µM
p38α
  IC50: 10 µM

## O=C(Nc1ccc(OCCN2CCOCC2)c2ccccc12)c1cc(F)cc(N2CCOCC2)c1 [Compound B206, 3-Fluoro-5-morpholin-4-yl-N-[4-(2-morpholin-4-ylethoxy)-1-naphthyl]benzamide]
[1]
  IC50: 4.23 µM
p38α
  IC50: 1.02 µM

## O=C(Nc1ccc(Oc2ccnc(NCC3CCCO3)n2)c2ccccc12)c1cc(F)cc(N2CCCCC2)c1 (centres unmarked) [Compound B386, 3-Fluoro-5-piperidin-1-yl-N-[4-({2-[(tetrahydrofuran-2-ylmethyl)amino]pyrimidin-4-yl}oxy)-1-naphthyl]benzamide]
[1]
  IC50: 0.0262 µM
p38α
  IC50: 0.0018 µM

## CC(=O)N1CCN(CCOc2ccc(NC(=O)c3cc(F)cc(N4CCCCC4)c3)c3ccccc23)CC1 [Compound B167, N-{4-[2-(4-Acetyl-piperazin-1-yl)-ethoxy]-naphthalen-1-yl}-3-fluoro-5-piperidin-1-yl-benzamide]
[1]
  IC50: > 10 µM
p38α
  IC50: 0.851 µM

## O=C(Nc1ccc(OCCN2CCOCC2)c2ccccc12)c1cccc(-c2ccc(F)cc2F)c1 [Compound B100]
[1]
  IC50: 1.59 µM
p38α
  inhibition at 10 µM: 86%
  IC50: 0.744 µM

## O=C(Nc1ccc(OCCN2CCOCC2)c2ccccc12)c1cc(F)cc(N2CCC3CCCCC3C2)c1 (centres unmarked) [Compound B213]
[1]
  IC50: > 10 µM
p38α
  IC50: > 10 µM

## CCOC(=O)N1CCN(c2nccc(Oc3ccc(NC(=O)c4cc(F)cc(N5CCOCC5)c4)c4ccccc34)n2)CC1 [Compound B329, Ethyl-4-[4-({4-[(3-fluoro-5-morpholin-4-ylbenzoyl)amino]-1-naphthyl}oxy)pyrimidin-2-yl]piperazine-1-carboxylate]
[1]
  IC50: > 1 µM
p38α
  IC50: 0.0105 µM
